Results: patent publication US20190016689A1, “NOVEL FLUORINATED QUINAZOLINE DERIVATIVES AS EGFR INHIBITORS” (TRILLIUM THERAPEUTICS INC., priority 2016, published 2019)
Like-named read-outs stand apart in the source and are kept apart here.

How the values were obtained:
A549/ATCC = test: NCI screening panel (SRB); assay type: cell-based; conditions: Homo sapiens, A549/ATCC (NSCLC), 48 h; for CC50: read-out: LC50 (the source's name)
EKVX = test: NCI screening panel (SRB); assay type: cell-based; conditions: Homo sapiens, EKVX (NSCLC), 48 h; for CC50: read-out: LC50 (the source's name)
NCI-H23 = test: NCI screening panel (SRB); assay type: cell-based; conditions: Homo sapiens, NCI-H23 (NSCLC), 48 h; for CC50: read-out: LC50 (the source's name)
HCT-116 = test: NCI screening panel (SRB); assay type: cell-based; conditions: Homo sapiens, HCT-116 (Colon), 48 h; for CC50: read-out: LC50 (the source's name)
KM12 = test: NCI screening panel (SRB); assay type: cell-based; conditions: Homo sapiens, KM12 (Colon), 48 h; for CC50: read-out: LC50 (the source's name)
SF-539 = test: NCI screening panel (SRB); assay type: cell-based; conditions: Homo sapiens, SF-539 (CNS), 48 h; for CC50: read-out: LC50 (the source's name)
U251 = test: NCI screening panel (SRB); assay type: cell-based; conditions: Homo sapiens, U-251, U251 (CNS), 48 h; for CC50: read-out: LC50 (the source's name)
TK-10 = test: NCI screening panel (SRB); assay type: cell-based; conditions: Homo sapiens, TK-10 (Renal), 48 h; for CC50: read-out: LC50 (the source's name)
MDA-MB-231/ATCC = test: NCI screening panel (SRB); assay type: cell-based; conditions: Homo sapiens, MDA-MB-231/ATCC (Breast), 48 h; for CC50: read-out: LC50 (the source's name)
[1] = Plasma and brain exposure in male CD-1 mice (Brain PK); assay type: in vivo; conditions: CD-1, mouse, brain; for AUC(0-t): read-out: AUC0-tlast; for half-life: read-out: Apparent t1/2 (converted); for MRT last: read-out: MRT0-tlast
Protocol: Animals: Male CD-1 mice (20-25 g) from Charles River Labs will be acclimatized for a minimum of 5 days prior to dosing. Body weights will be recorded on the day of dosing. Food restriction: Animals dosed p.o. will be deprived of food overnight and fed ˜2 h following dosing. Clinical observations: Animals will be observed at the time of dosing and each sample collection. Any abnormalities will be documented. Dosing: Formulations will be administered i.v. via the tail vein and p.o. by gavage with disposable feeding needles. Sample collection: Terminal blood samples will be collected under O2/CO2 anesthesia by cardiac puncture and then the brain and lungs will be excised blotted and weighed. Sample processing/storage: All blood samples will be transferred into K2EDTA tubes and centrifuged (6,800 rpm for 5 min at 4° C.) to obtain plasma. All samples will be stored frozen at −80° C. until bioanalysis. Sample retention: Plasma, brain and lung samples will be analyzed and any remaining samples will be stored frozen at −80° C. until the study is completed.

[2] = target: EGFR (L747-S752del, P753S) (Homo sapiens, UniProt P00533, DEL747-752/P753S); test: Kinase assays, selectivity panel (qPCR); conditions: read-out: % Control @ 300 nM
EGFR (L858R) = EGFR (L858R) (Homo sapiens, UniProt P00533, L858R); test: Kinase assays, selectivity panel (qPCR); conditions: read-out: % Control @ 300 nM
EGFR (L858R, T790M) = EGFR (L858R, T790M) (Homo sapiens, UniProt P00533, L858R/T790M); test: Kinase assays, selectivity panel (qPCR); conditions: read-out: % Control @ 300 nM
ERBB4 = ERBB4 (Homo sapiens, UniProt Q15303); test: Kinase assays, selectivity panel (qPCR); conditions: read-out: % Control @ 300 nM
EPHA6 = target: T1, EPHA6 (Homo sapiens, UniProt Q9UF33); test: Kinase assays, selectivity panel (qPCR); conditions: read-out: % Control @ 300 nM
T1 sequence (Q9UF33 23-1036): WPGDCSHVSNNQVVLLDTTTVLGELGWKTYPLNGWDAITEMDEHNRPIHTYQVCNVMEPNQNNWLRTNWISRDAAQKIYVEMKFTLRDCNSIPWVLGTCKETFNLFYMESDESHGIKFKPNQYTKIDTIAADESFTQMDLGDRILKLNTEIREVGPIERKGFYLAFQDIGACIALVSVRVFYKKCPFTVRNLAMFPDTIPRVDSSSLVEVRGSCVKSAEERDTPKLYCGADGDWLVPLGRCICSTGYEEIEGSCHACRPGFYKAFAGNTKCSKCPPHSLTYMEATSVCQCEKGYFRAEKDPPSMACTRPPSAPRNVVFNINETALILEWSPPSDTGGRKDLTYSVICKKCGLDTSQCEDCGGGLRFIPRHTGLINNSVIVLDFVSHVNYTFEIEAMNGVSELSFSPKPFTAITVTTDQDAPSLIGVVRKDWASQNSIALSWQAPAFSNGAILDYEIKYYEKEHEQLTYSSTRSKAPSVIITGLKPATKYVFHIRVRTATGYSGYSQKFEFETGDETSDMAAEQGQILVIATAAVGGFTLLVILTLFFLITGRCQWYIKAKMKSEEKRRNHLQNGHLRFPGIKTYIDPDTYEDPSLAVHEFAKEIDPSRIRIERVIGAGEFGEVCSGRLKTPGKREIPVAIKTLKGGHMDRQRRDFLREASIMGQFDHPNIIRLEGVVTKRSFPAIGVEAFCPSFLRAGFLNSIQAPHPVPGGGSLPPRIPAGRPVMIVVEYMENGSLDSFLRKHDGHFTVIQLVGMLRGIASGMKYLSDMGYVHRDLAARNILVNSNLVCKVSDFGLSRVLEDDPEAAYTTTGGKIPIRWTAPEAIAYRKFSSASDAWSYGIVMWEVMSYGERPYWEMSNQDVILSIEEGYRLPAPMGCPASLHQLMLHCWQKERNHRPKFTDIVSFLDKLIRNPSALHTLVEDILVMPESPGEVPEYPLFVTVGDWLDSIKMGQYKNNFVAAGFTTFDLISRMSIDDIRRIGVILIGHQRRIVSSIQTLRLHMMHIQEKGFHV

LCK (Lymphocyte TK) = LCK (Lymphocyte TK) (Homo sapiens, UniProt P06239); test: Kinase assays, selectivity panel (qPCR); conditions: read-out: % Control @ 300 nM
LCK (Lymphocyte TK), sequence (P06239 whole entry): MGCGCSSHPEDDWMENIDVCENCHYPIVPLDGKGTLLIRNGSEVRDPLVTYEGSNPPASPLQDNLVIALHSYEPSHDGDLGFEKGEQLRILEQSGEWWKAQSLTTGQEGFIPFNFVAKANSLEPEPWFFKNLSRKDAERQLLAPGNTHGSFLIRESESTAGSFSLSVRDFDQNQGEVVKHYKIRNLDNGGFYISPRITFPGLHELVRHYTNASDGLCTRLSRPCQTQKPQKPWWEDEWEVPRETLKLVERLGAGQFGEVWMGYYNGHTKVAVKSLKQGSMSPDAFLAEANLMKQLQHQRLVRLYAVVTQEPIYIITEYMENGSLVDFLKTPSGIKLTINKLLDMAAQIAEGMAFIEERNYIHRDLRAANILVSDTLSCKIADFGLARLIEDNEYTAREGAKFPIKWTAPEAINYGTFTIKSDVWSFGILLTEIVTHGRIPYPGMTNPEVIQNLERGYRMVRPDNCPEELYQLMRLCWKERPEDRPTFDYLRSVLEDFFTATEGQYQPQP

EGFR (L858R, T790M), sequence (P00533 25-1210 T790M/L858R): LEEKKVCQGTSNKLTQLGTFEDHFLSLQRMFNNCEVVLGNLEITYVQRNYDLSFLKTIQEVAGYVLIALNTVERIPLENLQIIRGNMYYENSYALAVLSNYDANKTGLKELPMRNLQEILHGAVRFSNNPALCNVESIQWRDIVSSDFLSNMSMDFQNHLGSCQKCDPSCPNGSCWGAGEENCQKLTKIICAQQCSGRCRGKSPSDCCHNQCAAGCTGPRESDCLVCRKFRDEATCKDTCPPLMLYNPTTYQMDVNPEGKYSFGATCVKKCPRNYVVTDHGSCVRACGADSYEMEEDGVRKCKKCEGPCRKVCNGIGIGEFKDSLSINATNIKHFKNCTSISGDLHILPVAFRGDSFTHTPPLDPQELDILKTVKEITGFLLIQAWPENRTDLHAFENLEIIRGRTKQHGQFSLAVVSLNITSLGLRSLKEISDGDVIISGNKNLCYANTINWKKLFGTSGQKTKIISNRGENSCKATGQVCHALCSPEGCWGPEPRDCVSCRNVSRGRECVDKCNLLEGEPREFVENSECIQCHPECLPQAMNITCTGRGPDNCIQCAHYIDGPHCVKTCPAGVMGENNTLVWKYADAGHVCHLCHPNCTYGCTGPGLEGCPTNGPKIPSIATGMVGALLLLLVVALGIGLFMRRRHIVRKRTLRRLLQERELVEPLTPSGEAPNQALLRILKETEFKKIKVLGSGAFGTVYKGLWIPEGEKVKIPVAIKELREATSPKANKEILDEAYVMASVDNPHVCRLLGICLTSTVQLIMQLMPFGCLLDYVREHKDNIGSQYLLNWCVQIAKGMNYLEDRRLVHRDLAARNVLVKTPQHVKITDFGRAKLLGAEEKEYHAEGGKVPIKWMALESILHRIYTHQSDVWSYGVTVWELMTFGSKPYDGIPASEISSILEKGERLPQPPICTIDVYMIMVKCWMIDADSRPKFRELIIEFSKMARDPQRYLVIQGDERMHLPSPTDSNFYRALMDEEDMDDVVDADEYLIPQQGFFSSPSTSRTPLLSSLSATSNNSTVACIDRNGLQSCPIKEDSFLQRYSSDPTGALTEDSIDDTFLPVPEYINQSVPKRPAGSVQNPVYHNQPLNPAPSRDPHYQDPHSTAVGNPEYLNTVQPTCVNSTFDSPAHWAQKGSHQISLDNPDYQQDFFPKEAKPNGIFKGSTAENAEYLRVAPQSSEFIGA
ERBB4, sequence (Q15303 26-1308): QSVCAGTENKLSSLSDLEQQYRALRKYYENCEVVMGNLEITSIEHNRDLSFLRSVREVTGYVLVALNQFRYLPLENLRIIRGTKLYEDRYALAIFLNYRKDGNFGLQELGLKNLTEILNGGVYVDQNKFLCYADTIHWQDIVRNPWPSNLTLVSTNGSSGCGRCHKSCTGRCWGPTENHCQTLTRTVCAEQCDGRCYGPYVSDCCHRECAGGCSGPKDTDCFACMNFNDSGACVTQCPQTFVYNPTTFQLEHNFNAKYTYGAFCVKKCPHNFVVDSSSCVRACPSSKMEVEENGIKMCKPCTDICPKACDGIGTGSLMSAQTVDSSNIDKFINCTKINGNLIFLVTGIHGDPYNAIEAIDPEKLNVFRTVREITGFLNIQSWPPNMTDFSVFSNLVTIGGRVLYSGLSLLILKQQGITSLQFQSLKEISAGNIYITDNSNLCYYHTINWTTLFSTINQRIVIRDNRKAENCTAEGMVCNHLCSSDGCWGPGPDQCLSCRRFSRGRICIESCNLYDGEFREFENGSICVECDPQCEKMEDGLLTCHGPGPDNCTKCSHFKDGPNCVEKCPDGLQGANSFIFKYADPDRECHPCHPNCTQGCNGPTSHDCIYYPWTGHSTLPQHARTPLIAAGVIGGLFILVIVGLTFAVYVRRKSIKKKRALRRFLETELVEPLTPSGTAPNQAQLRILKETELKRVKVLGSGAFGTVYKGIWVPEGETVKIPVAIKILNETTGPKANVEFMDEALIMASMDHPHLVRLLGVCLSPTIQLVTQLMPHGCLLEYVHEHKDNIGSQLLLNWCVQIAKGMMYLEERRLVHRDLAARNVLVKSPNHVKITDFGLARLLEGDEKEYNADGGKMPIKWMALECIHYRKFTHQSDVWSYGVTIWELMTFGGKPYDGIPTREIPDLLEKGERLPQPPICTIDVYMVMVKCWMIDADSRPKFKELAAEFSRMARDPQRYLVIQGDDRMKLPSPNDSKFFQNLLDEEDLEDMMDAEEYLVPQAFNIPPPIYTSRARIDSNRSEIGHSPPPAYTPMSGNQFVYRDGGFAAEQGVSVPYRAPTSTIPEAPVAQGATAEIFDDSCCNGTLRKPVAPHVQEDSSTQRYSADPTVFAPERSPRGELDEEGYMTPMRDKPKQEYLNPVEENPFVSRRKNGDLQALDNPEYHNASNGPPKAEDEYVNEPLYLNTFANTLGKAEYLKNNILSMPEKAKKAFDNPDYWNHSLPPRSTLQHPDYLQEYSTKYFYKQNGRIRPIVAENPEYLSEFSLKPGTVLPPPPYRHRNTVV
EGFR (L747-S752del, P753S), sequence (P00533 with tags, fused parts or gaps DEL747-752/P753S): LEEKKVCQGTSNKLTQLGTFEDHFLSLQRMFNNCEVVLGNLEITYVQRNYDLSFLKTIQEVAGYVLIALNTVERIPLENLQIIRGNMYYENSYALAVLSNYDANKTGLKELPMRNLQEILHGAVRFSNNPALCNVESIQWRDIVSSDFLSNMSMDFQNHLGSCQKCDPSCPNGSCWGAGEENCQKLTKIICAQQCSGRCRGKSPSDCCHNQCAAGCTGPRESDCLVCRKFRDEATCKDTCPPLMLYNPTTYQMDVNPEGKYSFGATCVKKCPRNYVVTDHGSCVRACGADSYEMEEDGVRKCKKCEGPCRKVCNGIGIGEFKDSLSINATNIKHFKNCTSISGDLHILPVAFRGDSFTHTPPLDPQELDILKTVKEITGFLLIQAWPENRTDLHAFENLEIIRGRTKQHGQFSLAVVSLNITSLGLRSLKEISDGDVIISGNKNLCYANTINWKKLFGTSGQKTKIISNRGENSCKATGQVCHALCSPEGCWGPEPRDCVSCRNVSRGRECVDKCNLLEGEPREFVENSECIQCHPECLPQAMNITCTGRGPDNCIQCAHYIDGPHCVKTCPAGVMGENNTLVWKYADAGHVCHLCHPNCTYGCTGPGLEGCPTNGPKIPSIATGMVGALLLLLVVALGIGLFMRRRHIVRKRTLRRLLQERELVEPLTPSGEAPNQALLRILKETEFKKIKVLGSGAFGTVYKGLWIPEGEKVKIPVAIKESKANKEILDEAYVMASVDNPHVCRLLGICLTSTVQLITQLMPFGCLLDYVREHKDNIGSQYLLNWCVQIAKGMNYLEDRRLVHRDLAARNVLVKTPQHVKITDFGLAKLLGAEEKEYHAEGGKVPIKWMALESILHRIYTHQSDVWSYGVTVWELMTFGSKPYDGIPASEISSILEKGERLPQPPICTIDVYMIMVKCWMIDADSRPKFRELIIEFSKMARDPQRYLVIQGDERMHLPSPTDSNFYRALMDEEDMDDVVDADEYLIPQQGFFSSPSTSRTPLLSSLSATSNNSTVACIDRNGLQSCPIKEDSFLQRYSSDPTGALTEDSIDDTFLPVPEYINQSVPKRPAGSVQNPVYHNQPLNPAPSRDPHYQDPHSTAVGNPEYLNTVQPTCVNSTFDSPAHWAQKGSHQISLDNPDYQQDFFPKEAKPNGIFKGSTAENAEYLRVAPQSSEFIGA

| Structure (SMILES) | GI50 (A549/ATCC) | CC50 (A549/ATCC) | GI50 (EKVX) | CC50 (EKVX) | GI50 (NCI-H23) | CC50 (NCI-H23) | GI50 (HCT-116) | CC50 (HCT-116) | GI50 (KM12) | Cmax ([1]; iv, i.v. 1 mg/kg free base) | Tmax ([1]; iv, i.v. 1 mg/kg free base) | AUC(0-t) ([1]; iv, i.v. 1 mg/kg free base) | half-life ([1]; iv, i.v. 1 mg/kg free base) | MRT last ([1]; iv, i.v. 1 mg/kg free base) | AUC(0-inf) ([1]; po, p.o. 25 mg/kg free base) | Cmax ([1]; po, p.o. 25 mg/kg free base) | Tmax ([1]; po, p.o. 25 mg/kg free base) | AUC(0-t) ([1]; po, p.o. 25 mg/kg free base) | half-life ([1]; po, p.o. 25 mg/kg free base) | MRT last ([1]; po, p.o. 25 mg/kg free base) | further results |
| --- | --- | --- | --- | --- | --- | --- | --- | --- | --- | --- | --- | --- | --- | --- | --- | --- | --- | --- | --- | --- | --- |
| CN(C)C/C=C/C(=O)Nc1cc2c(Nc3ccc(F)c(Cl)c3F)ncnc2cc1OCCOC(F)F.O=C(O)/C=C\C(=O)O.O=C(O)/C=C\C(=O)O [Example I-9-MA, (E)-N-[4-(3-chloro-2,4-difluoro-anilino)-7-[2-(difluoromethoxy)ethoxy]quinazolin-6-yl]-4-(dimethylamino)but-2-enamide di-maleic acid salt] | 770 nM | 36.3 µM | < 10 nM | 19.6 µM | 1380 nM | 15.4 µM | 483 nM | 22.4 µM | 1880 nM | 171 ng/mL | 0.0833 h | 397 ng·h/mL | 427 min | 6.6 h | 5960 ng·h/mL | 651 ng/mL | 2 h | 5900 ng·h/mL | 206 min | 6.78 h | CC50 (KM12): 29.2 µM; GI50 (SF-539): 1060 nM; CC50 (SF-539): 9.52 µM; GI50 (U251): 2170 nM; CC50 (U251): 29.6 µM; GI50 (TK-10): < 10 nM; CC50 (TK-10): 21.8 µM; GI50 (MDA-MB-231/ATCC): 391 nM; CC50 (MDA-MB-231/ATCC): 28.8 µM; AUC(0-inf) ([1]; iv, i.v. 1 mg/kg free base): 420 ng·h/mL; remaining activity at 0.3 µM [2]: 2.8%; remaining activity at 0.3 µM (EGFR (L858R)): 0%; remaining activity at 0.3 µM (EGFR (L858R, T790M)): 3.5%; remaining activity at 0.3 µM (ERBB4): 1.8%; remaining activity at 0.3 µM (EPHA6): 3.5%; remaining activity at 0.3 µM (LCK (Lymphocyte TK)): 1.3% |
| CN(C)C/C=C/C(=O)Nc1cc2c(Nc3ccc(F)c(Cl)c3)ncnc2cc1O[C@H]1CCOC1 [Afatinib, reference compound] |  |  |  |  |  |  |  |  |  | 12.7 ng/mL | 0.0833 h | 44.5 ng·h/mL | 298 min | 7.01 h | 704 ng·h/mL | 83.3 ng/mL | 4 h | 688 ng·h/mL | 221 min | 8.64 h |  |
| O=C(/C=C/CN1CCCCC1)Nc1cc2c(Nc3ccc(F)c(Cl)c3F)ncnc2cc1OCCOC(F)F.O=C(O)/C=C\C(=O)O.O=C(O)/C=C\C(=O)O [Example I-10-MA, (E)-N-[4-(3-chloro-2,4-difluoro-anilino)-7-[2-(difluoromethoxy)ethoxy]quinazolin-6-yl]-4-(1-piperidyl)but-2-enamide di-maleic acid salt] | 1000 nM | 36.6 µM | 34.7 nM | 23.9 µM | 2090 nM | > 100 µM | 1540 nM | 88.9 µM | 2670 nM | 1110 ng/mL | 0.25 h | 1710 ng·h/mL | 285 min | 2.99 h | 14000 ng·h/mL | 3830 ng/mL | 2 h | 13900 ng·h/mL | 195 min | 3.68 h | CC50 (KM12): 34.3 µM; GI50 (SF-539): 1500 nM; CC50 (SF-539): 14.3 µM; GI50 (U251): 2170 nM; CC50 (U251): 40.7 µM; GI50 (TK-10): < 10 nM; CC50 (TK-10): 35.1 µM; GI50 (MDA-MB-231/ATCC): 1150 nM; CC50 (MDA-MB-231/ATCC): 17.6 µM; AUC(0-inf) ([1]; iv, i.v. 1 mg/kg free base): 1730 ng·h/mL; remaining activity at 0.3 µM [2]: 2.5%; remaining activity at 0.3 µM (EGFR (L858R)): 0.4%; remaining activity at 0.3 µM (EGFR (L858R, T790M)): 2.4%; remaining activity at 0.3 µM (ERBB4): 3.2%; remaining activity at 0.3 µM (EPHA6): 3.9%; remaining activity at 0.3 µM (LCK (Lymphocyte TK)): 1.3% |
